Results: US10952415B2, “Prostate cancer cell lines, gene signatures and uses thereof” (priority 2011, dated 2021)

B1: CCR5: printed CCR5, probably CCL5 (R&D System), the CCR5 ligand used as chemoattractant (protein, UniProt P13501 24-91, looked up)
C-C motif chemokine 5: SPYSSDTTPCCFAYIARPLPRAHIKEYFYTSGKCSNPAVVFVTRKNRQVCANPEKKWVREYINSLEMS

How the values were obtained:
PEC lines = experiment: Experimental metastasis assay: intracardiac injection of Luc2-Tomato-Red PEC lines, bioluminescence, X-ray and F-18-NaF imaging; format: in vivo, FVB mice
PEC-Src line = experiment: Three-dimensional (Matrigel) invasion assay; format: cell-based, murine; conditions: 10 ug/ml osteopontin or 15 ng/ml CCL5 as chemoattractant in upper chamber, three days
Method: The three-dimensional invasion assay was performed as previously reported. […] The transwell was incubated at 37° C. overnight to allow the collagen to solidify. 30,000 cells were then seeded on the bottom of the transwell membrane and allowed to attach. Serum-free growth medium was placed into the bottom chamber, while 10 ug/ml osteopontin (R&D System), or 15 ng/ml CCL5 (R&D System), or 10% FBS was used as a chemo attractant in the medium of the upper chamber. The cells were then chemo attracted across the filter through the collagen above for three days. Cells were fixed in 4% formaldehyde, permeabilized with 0.2% Triton-X in PBS and then stained with […] propidium iodide (PI) for 2 h. Fluorescence was analyzed by confocal z sections (one section every […]) at 10× magnification from the bottom of the filter using a Zeiss LSM 510 Meta inverted confocal microscope at the Kimmel Cancer Center Bioimaging Facilit.
For the comparison to tissue, the in vivo tumor gene expression in the oncogene transformed PEC was compared with the expression in vivo in the dorsolateral ventral prostate of mice with the same strain. […] Upregulation of the receptor ligands CCL2, CCL7, and CCL8 was observed (2- to 3-fold). CCL7, CCL8 and CCL5 are ligands for CCR5, CCL8 and CCL5 for CCR1 (FIG. 16H). […]

[1] = Maraviroc 8 mg/kg oral vs control, FVB mice, 2 weeks after intracardiac injection of PEC lines, N=8 per group

| Molecule | reduction of bony metastasis (lower limb bony mass) (PEC lines; [1]) | reduction of total body metastatic burden (photon flux) (PEC lines; [1]) | effect on metastasis (result in words) (PEC lines; daily oral CCR5 antagonist, bony / spinal osteolytic metastasis in mice) | reduction of spine metastasis (PEC lines; daily oral treatment, F-18-NaF imaging correlated with X-ray, FVB mice) | Matrigel invasion of the PEC-Src line (result in words) (PEC-Src line) |
| --- | --- | --- | --- | --- | --- |
| Maraviroc | > 50% | > 50% | reduction in metastasis | > 90% | – |
| osteopontin [OPN] | – | – | – | – | enhanced PEC invasiveness into matrigel |
| B1 | – | – | – | – | enhanced PEC invasiveness into matrigel |
